Data from article PMC6925188, “PBRM1 acts as a p53 lysine-acetylation reader to suppress renal tumor growth” (Nature Communications, 2019).
Where no end group is shown, it is not given here. The star is where a group is joined. Biotin = O=C1N[C@H]2[C@H](CS[C@H]2CCCCC(=O)*)N1

Legend:
PBRM1-p53 interaction = assay: Co-immunoprecipitation of Flag-PBRM1 and Myc-p53 (anti-Flag M2) in H1299 cells; format: cell-based
Source text: Fig. 1 PBRM1 and p53 display a physical association that is enhanced after DNA damage. a U2OS cells (left) and HEK293T cells (right) were transfected with vector or Flag-PBRM1 and harvested for immunoprecipitation with Flag-M2 beads and elution with 3X Flag peptide. […] Lysates were subjected to immunoprecipitation with Flag-M2 beads. […] Lysates were immunoprecipitated with p53 antibody. The bound PBRM1 and p53 were examined by immunoblots. Source data are provided as a Source Data file.
For anti-Flag immunoprecipitation, cell pellets harvested from one 10 cm culture dish were resuspended in 500 µl hypotonic buffer (10 mM Tris-HCl, pH 8.0, 1.5 mM MgCl2, 10 mM KCl) with protease and phosphatase inhibitors, 2 μM TSA and 10 mM NAM, and samples were incubated on ice for 15 min. Twenty-five microliters of Triton X-100 was added and samples were vortexed for 10 s. After centrifuging for 30 s at 14,000 × g, supernatants were removed and pellets were resuspended in 100 µl hypertonic buffer (20 mM Tris-HCl pH 8.0, 420 mM KCl, 1.5 mM MgCl2, 20% (v/v) glycerol) with protease and phosphatase inhibitors, 2 μM TSA and 10 mM NAM and vortexed for 10 s. Pellets were incubated on ice for 40 min and vortexed for 15 s every 10 min. After centrifuging for 10 min at 14,000 × g, supernatants were collected and diluted with 300 µl EBC buffer (50 mM Tris-HCl (pH 7.5), 120 mM NaCl, 0.5% NP-40) with protease and phosphatase inhibitors, 2 μM TSA and 10 mM NAM. […] Beads were washed four times with EBC buffer and eluted with 3X Flag peptide (F4799, Sigma-Aldrich) overnight at 4 °C. The input and Flag-elution were analyzed by SDS-PAGE and immunoblot.
Supplementary Figure 2. […]
a. Vectors, Flag-PBRM1 or Myc-p53 were transfected into H1299 cells as indicated, and treated with 5 µM nicotinamide or vehicle. Lysates were used for anti-Flag immunoprecipitation and 3X Flag peptide elution. The inputs and eluates were immunoblotted with the indicated antibodies. […]
Flag-PBRM1, wildtype or K382Q mutated Myc-p53 were transfected into H1299 cells with indicated combinations. Lysates were used for anti-Flagimmunoprecipitation followed by Flag peptide elution. […]

[1] = system: ACHN, Caki-1 and Ren-01 cells; assay: Immunoblot of p53 targets, kidney cancer cells with PBRM1 shRNA knockdown; format: cell-based; settings: 10 μM Nutlin-3a
Procedure: Lysates were analyzed by immunoblots. c RCC4 cells with or without p53 KO were transfected with vector or Flag-PBRM1 at the indicated amounts. […] Cells were harvested for RT-qPCR (g) or ChIP followed by qPCR (h). […] Representative data is shown in i. Quantification of cell cycle phase is shown in j. Source data are provided as a Source Data file.
After washing with ice-cold PBS, cells were scraped on ice and centrifuged at 10,000 × g for 1 min at 4 °C. For immunoblot analysis, cell pellets were lysed in 1% SDS containing a protease inhibitor cocktail followed by sonication with a FB50 sonic dismembrator (Fisher Scientific) at 20% amplitude for 15 s twice. After centrifuging for 10 min at 14,000 × g, the supernatants were combined with 5X SDS loading buffer (5% mercaptoethanol, 0.05% Bromophenol blue, 30% glycerol, 10% SDS, 250 mM Tris-HCl (pH 6.8)), boiled for 5 min and used in SDS-PAGE. After standard western blot procedures, the blots were developed using the ImageQuant LAS 4000 (GE healthcare Life Sciences) or ChemiDoc MP Imaging System (Bio-rad) with HyGLO™ Chemiluminescent HRP Detection Reagent (E2500, Denville Scientific) or Immobilon™ Western Chemiluminescent HRP Substrate (WBKLS0500, Millipore). […]
the indicated times. Lysates were analyzed via immunoblots. b. […]
were analyzed by immunoblots. c. […]
Lysates were analyzed via immunoblots. e. […]
Lysates were analyzed via immunoblots. f, g, h. […]

endogenous PBRM1 = assay: Peptide pull-down, endogenous PBRM1 from cell lysates; format: binding; settings: H1299 lysate, Supplementary Fig. 2e, f
Procedure: Fig. 2 Acetylation on K382 of p53 promotes PBRM1 binding. a Schematic depiction of the functional domains of p53 and truncated constructs. FL full-length, TAD transactivation domain, PRD proline-rich domain, DBD DNA-binding domain, TD tetramerization domain, CTD C-terminal domain. b HEK293T cells were transfected with vectors, Flag-PBRM1, Myc-p53 and Myc-p53 truncated constructs. After immunoprecipitation with Flag-M2 beads, the inputs and eluates were analyzed by immunoblots. c Vectors, Flag-PBRM1, Myc-p53 and HA-Tip60, HA-PCAF, HA-CBP or HA-p300 were transfected into HEK293T cells as indicated. Lysates were used for anti-Flag immunoprecipitation and 3X Flag peptide elution. The inputs and eluates were analyzed by immunoblots. d HEK293T cells were transfected with Flag-PBRM1, Myc-p53 and HA-p300. The amount of HA-p300 was titrated as indicated. Lysates were used in immunoprecipitations with Flag-M2 beads, and inputs and eluates were analyzed by immunoblots. e Vectors, Flag-PBRM1, HA-p300 and Myc-p53 (WT) or Myc-p53 6KR mutant were transfected into HEK293T cells as indicated. Lysates were used for anti-Flag immunoprecipitation and 3X Flag peptide elution. Inputs and eluates were examined by immunoblots. […] The peptides were pulled down with streptavidin beads and the associated proteins were analyzed by immunoblots. […]

BDs of PBRM1 = settings: shorter peptide, residues 375–388, 14 residues; cited from earlier work
Source text: Although acetylation is indispensable for p53′s transcriptional function and SWI/SNF complexes function as transcriptional co-factors, no acetylation-dependent interaction has been reported between p53 and SWI/SNF complexes. In this study, we report that acetylation on p53 lysine 382 enhanced the interaction between PBRM1 and p53 via recognition by PBRM1 BD4. […] The difference is likely due to the length of the peptides used. In our experiments, the p53 peptide used was much longer than theirs (368–393, 26 re ...

## NC(=O)c1cccnc1 [Nicotinamide]
PBRM1-p53 interaction; H1299, 5 µM nicotinamide
  PBRM1-p53 interaction: enhanced

## COc1ccc(C2=N[C@@H](c3ccc(Cl)cc3)[C@@H](c3ccc(Cl)cc3)N2C(=O)N2CCNC(=O)C2)c(OC(C)C)c1 [Nutlin-3a]
[1]
  p21 induction by p53 with PBRM1 knockdown: reduced

## K382Q: Biot-K382Q (368-393) p53 peptide (Biotin-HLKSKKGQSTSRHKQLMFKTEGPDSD; UniProt P04637 368-393, looked up, variant K382Q)
Endogenous PBRM1
  binding to PBRM1 of K382Q peptide: failed to mimic K382Ac to enhance binding to PBRM1

## bleomycin
PBRM1-p53 interaction; H1299, etoposide 50 μM or bleomycin 10 μg/ml
  PBRM1 and exogenous p53 protein levels: neither the PBRM1 nor the exogenous p53 levels changed
PBRM1-p53 interaction; H1299 co-transfected with PBRM1 and p53, bleomycin 10 μg/ml
  PBRM1-p53 interaction: enhanced

## p53 K382Ac peptide (375–388): p53 K382Ac peptide of previous report, 375–388, 14 residues (QSTSRHKK(Ac)LMFKTE; not fully specified; UniProt P04637 375-388, looked up, fragment)
BDs of PBRM1
  binding of PBRM1 BDs to p53 K382Ac peptide: did not bind
